Laboratory results taken from patent EP1200395B1, “UREA DERIVATIVES AS INHIBITORS OF CCR-3 RECEPTOR” (KIRIN BEER KABUSHIKI KAISHA, priority 1999, dated 2001).

Molecular target: T1, CCR-3 (Homo sapiens, UniProt P51677)
T1 sequence (P51677 1-355): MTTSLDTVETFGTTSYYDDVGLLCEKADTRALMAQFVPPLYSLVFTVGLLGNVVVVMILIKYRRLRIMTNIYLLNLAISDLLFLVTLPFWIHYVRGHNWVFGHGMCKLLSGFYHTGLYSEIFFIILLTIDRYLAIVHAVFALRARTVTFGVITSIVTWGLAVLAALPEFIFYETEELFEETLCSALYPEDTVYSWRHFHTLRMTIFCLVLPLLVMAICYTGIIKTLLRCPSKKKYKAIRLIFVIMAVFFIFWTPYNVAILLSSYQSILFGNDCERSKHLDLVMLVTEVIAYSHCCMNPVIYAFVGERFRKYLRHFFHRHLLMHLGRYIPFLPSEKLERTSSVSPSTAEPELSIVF
Assay: Eotaxin-induced chemotaxis of CCR-3 transfectant cells (CCR3/U937)
Format: cell-based
Set-up: expressed in transfected cells; host or cells: U937
Settings: eotaxin 1 x 10^-9 M; for Chemotaxis Assay 10 µM (inhibition %) / inhibition at 10 µM: 10 µM test compound; for Chemotaxis Assay 0.1 µg/ml (inhibition %): test compound 0.1 µg/ml, CCR3/U937 transfectants, 37 °C, 1 hour; for inhibition at 10 µM: U-937
Protocol: The inhibitory activity of the compounds against eotaxin-induced chemotaxis was determined by measuring the inhibition of migration of CCR-3 transfectant cells (CCR3/U937), using a minor modification of the method described by Ohashi, H. et al., Int Arch Allergy Immunol. […] The chemotaxis assay was performed in a 24-well culture plate. Human eotaxin suspended in assay medium was added to the wells at 1 x 10^-9 M along with test compounds at various concentrations. For a positive control, eotaxin was added to the wells without a test compound, and for a negative control, neither eotaxin nor a test compound was added to the wells. Chemotaxicell (Kurabo Co., Ltd.) having 5 micrometers pore size were inserted into each well and 100 micro liters of CCR-3 transfectant cells suspension were added to the top chamber. The plates were incubated at 37 °C for 1 hour. After incubation, migrated cells in lower wells were diluted and counted by particle size distribution analyzer (CDP-500, Sysmex Co., Ltd.).

CSc1cccc(NC(=O)NCCCN(CCCC(=O)O)C2CCCc3ccccc32)c1 (stereo not drawn) [Compound 263]
Chemotaxis Assay 10 µM (inhibition %) (CCR3/U937 cells (Table 3a)): 100%

CC[N+](CCCNC(=O)Nc1ccc(Br)cc1)(CCOCCOC)CCc1cccc(F)c1.[I-] (stereo not drawn) [compound 375]
Chemotaxis Assay 0.1 µg/ml (inhibition %): 91%

CC[N+](CCCNC(=O)Nc1ccc(Br)cc1)(CCCC(=O)OC)C(C)c1ccccc1.[I-] (stereo not drawn) [compound 312]
Chemotaxis Assay 10 µM (inhibition %) (CCR3/U937 cells (Table 3c)): 97%

COC(=O)CCCN(CCCCCNC(=O)Nc1ccc(Br)cc1)C1CCCc2ccccc21 (stereo not drawn) [Compound 33, Methyl 4-[[5-(4-bromophenylureido)penryl](1,2.3,4-tetrahvdro-1-naphthyl)amino]burylate]
Chemotaxis Assay 10 µM (inhibition %) (CCR3/U937 cells (Table 3a)): 95%

O=C(O)CCCN(CCCNC(=O)Nc1ccc(Br)cc1)Cc1ccc2c(c1)OCO2 [Compound 70]
Chemotaxis Assay 10 µM (inhibition %) (CCR3/U937 cells (Table 3a)): 89%

CCCCN(CCCNC(=O)Nc1ccccc1)CCc1ccc(Cl)cc1 [Compound 14]
Chemotaxis Assay 10 µM (inhibition %) (CCR3/U937 cells (Table 3a)): 97%

CCC(CC)C[N+](CC)(CCCNC(=O)Nc1ccc(OC)cc1)CCc1ccc(Cl)c(Cl)c1.[I-] (stereo not drawn) [compound 449]
Chemotaxis Assay 0.1 µg/ml (inhibition %): 96%

COC(=O)CCCN(CCCNC(=O)Nc1ccc(Cl)cc1)C1CCCc2ccccc21 (stereo not drawn) [Compound 185]
Chemotaxis Assay 10 µM (inhibition %) (CCR3/U937 cells (Table 3a)): 100%

COc1ccc(CN(CCCNC(=O)Nc2ccccc2)CCc2ccc(Cl)cc2)cc1 [Compound 18]
inhibition at 10 µM (CCR3/U937 cells (Table 3a)): 58%

CC[N+](CCCNC(=O)Nc1ccccc1)(CCc1ccc(Cl)cc1)Cc1ccc(C(=O)O)cc1 (stereo not drawn) [Compound 322, [3-(Phenylureido)propyl][2-(4-chlorophenyl)ethyl][4-(carboxy)benzyl]ethylammonium iodide]
inhibition at 10 µM (CCR3/U937 cells (Table 3c)): 93%

COc1ccc(NC(=O)NCCCN(CCCC(=O)O)C2CCCc3ccccc32)cc1 (stereo not drawn) [Compound 88]
Chemotaxis Assay 10 µM (inhibition %) (CCR3/U937 cells (Table 3a)): 100%

COC(=O)CCCN(CCCNC(=O)Nc1cccc(Br)c1)C1CCCc2ccccc21 (stereo not drawn) [Compound 198]
Chemotaxis Assay 10 µM (inhibition %) (CCR3/U937 cells (Table 3a)): 100%

CC[N+](CCCNC(=O)Nc1ccccc1)(CCc1ccc(Cl)cc1)Cc1ccc(C)cc1.[I-] (stereo not drawn) [Compound 297]
Chemotaxis Assay 10 µM (inhibition %) (CCR3/U937 cells (Table 3c)): 100%

O=C(NCCCN(CCc1ccccc1)CCc1ccc(Cl)cc1)Nc1ccccc1 [Compound 25]
inhibition at 10 µM (CCR3/U937 cells (Table 3a)): 88%

O=C(O)CCCN(CCCNC(=O)Nc1ccccc1)C1CCCc2ccccc21 (stereo not drawn) [Compound 87]
Chemotaxis Assay 10 µM (inhibition %) (CCR3/U937 cells (Table 3a)): 97%

CC[N+](CCF)(CCCNC(=O)Nc1ccccc1)CCc1cccc(Cl)c1.[I-] (stereo not drawn) [compound 432]
Chemotaxis Assay 0.1 µg/ml (inhibition %): 96%

O=C(O)CCCN(CCCNC(=O)Nc1cccc(Cl)c1)C1CCCc2ccccc21 (stereo not drawn) [Compound 82]
Chemotaxis Assay 10 µM (inhibition %) (CCR3/U937 cells (Table 3a)): 100%

CC[N+](CCCNC(=O)Nc1ccccc1)(CCc1ccc(Cl)c(Cl)c1)CC1CCC1.[I-] (stereo not drawn) [compound 420]
Chemotaxis Assay 0.1 µg/ml (inhibition %): 99%

O=C(NCCCN(CCCCCO)C1CCCc2ccccc21)Nc1ccc(Br)cc1 (stereo not drawn) [Compound 205]
Chemotaxis Assay 10 µM (inhibition %) (CCR3/U937 cells (Table 3a)): 97%

O=C(CCCN(CCCNC(=O)Nc1ccc(Br)cc1)C1CCCc2ccccc21)NS(=O)(=O)c1ccccc1 (stereo not drawn) [Compound 196, 3-[[3-(4-Bromophenylureido)propyl](1,2,3,4-tetrahydro-1-naphthyl)amino]-1-[(phenylsulfonyl)carbamoyl]propane]
inhibition at 10 µM (CCR3/U937 cells (Table 3a)): 100%

CC[N+](CCCNC(=O)Nc1ccccc1)(CCOCCOC)CCc1cccc(Cl)c1.[I-] (stereo not drawn) [compound 413]
Chemotaxis Assay 0.1 µg/ml (inhibition %): 95%

CC[N+](CCCNC(=O)Nc1ccccc1)(CCc1ccc(Cl)cc1)Cc1cccc(Oc2ccccc2F)c1.[I-] (stereo not drawn) [compound 354]
Chemotaxis Assay 10 µM (inhibition %) (CCR3/U937 cells (Table 3c)): 100%

COC(=O)CCCN(CCCNC(=O)Nc1ccc(Br)cc1)C(Cc1ccccc1)c1ccccc1 (stereo not drawn) [Compound 45]
Chemotaxis Assay 10 µM (inhibition %) (CCR3/U937 cells (Table 3a)): 62%

CC[N+](CCCCC(=O)OC)(CCCNC(=O)Nc1ccccc1)CCc1ccc(Cl)cc1 (stereo not drawn) [Compound 320, [3-(Phenylureido)propyl][2-(4-chlorophenyl)ethyl][4-(methoxycarbonyl)butyl] ethylammonium iodide]
inhibition at 10 µM (CCR3/U937 cells (Table 3c)): 100%

COC(=O)CCCN(CCCNC(=O)Nc1ccccc1-c1ccccc1)C1CCCc2ccccc21 (stereo not drawn) [Compound 54]
Chemotaxis Assay 10 µM (inhibition %) (CCR3/U937 cells (Table 3a)): 19%

C=CCN(CCCNC(=O)Nc1ccccc1)CCc1ccc(Cl)cc1 [Compound 221]
Chemotaxis Assay 10 µM (inhibition %) (CCR3/U937 cells (Table 3a)): 100%

O=C(O)CCCN(CCCNC(=O)Nc1ccc(I)cc1)C1CCCc2ccccc21 (stereo not drawn) [Compound 229, 4-[[3-(4-Iodophenylureido)propyl](1,2,3,4-tetrahydro-1-naphthyl)amino]butanoic acid]
inhibition at 10 µM (CCR3/U937 cells (Table 3a)): 100%

CC[N+](CCCNC(=O)Nc1ccccc1)(CCc1ccc(Cl)cc1)Cc1cccc(Cl)c1.[I-] (stereo not drawn) [compound 329]
Chemotaxis Assay 10 µM (inhibition %) (CCR3/U937 cells (Table 3c)): 100%

Cc1ccc(C[N+](CCCNC(=O)Nc2ccccc2)(CCc2ccc(Cl)cc2)Cc2ccc(C)cc2)cc1 [Compound 296, [3-(Phenylureido)propyl][2-(4-chlorophenyl)ethyl]bis(4-methylbenzyl)ammonium iodide]
inhibition at 10 µM (CCR3/U937 cells (Table 3c)): 67%

CC[N+](CCCNC(=O)Nc1ccccc1)(CCc1ccc(Cl)cc1)Cc1ccccc1Cl (stereo not drawn) [Compound 343, [3-(Phenylureido)propyl][2-(4-chlorophenyl)ethyl](2-chlorobenzyl)ethylammonium iodide]
inhibition at 10 µM (CCR3/U937 cells (Table 3c)): 100%

CC[N+](CCCNC(=O)Nc1ccc(C#N)cc1)(CCc1ccc(Cl)cc1)Cc1ccccc1.[I-] (stereo not drawn) [compound 326]
Chemotaxis Assay 10 µM (inhibition %) (CCR3/U937 cells (Table 3c)): 100%

C=C(C)C[N+](CC)(CCCNC(=O)Nc1ccc(C(F)(F)F)cc1)CCc1cccc(Cl)c1.[I-] (stereo not drawn) [compound 390]
Chemotaxis Assay 0.1 µg/ml (inhibition %): 51%

O=C(O)CCCN(CCCNC(=O)Nc1ccc(Br)cc1)C1Cc2ccccc2C1 [Compound 175]
Chemotaxis Assay 10 µM (inhibition %) (CCR3/U937 cells (Table 3a)): 100%

CC[N+](CCCNC(=O)Nc1ccccc1)(CCc1ccc(Cl)cc1)Cc1ccc(C(=O)OC)cc1.[I-] (stereo not drawn) [Compound 303]
Chemotaxis Assay 10 µM (inhibition %) (CCR3/U937 cells (Table 3c)): 100%

CC[N+](CCCNC(=O)Nc1ccccc1)(CCc1ccc(Cl)cc1)Cc1cccc(Oc2ccccc2)c1.[I-] (stereo not drawn) [compound 333]
Chemotaxis Assay 10 µM (inhibition %) (CCR3/U937 cells (Table 3c)): 100%

CC(=O)OCCCCN(CCCNC(=O)Nc1ccc(Br)cc1)C1CCCc2ccccc21 (stereo not drawn) [Compound 202]
Chemotaxis Assay 10 µM (inhibition %) (CCR3/U937 cells (Table 3a)): 100%

CC[N+](CC#N)(CCCNC(=O)Nc1ccccc1)CCc1cccc(Cl)c1.[I-] (stereo not drawn) [compound 411]
Chemotaxis Assay 0.1 µg/ml (inhibition %): 42%

COC(=O)CCCN(CCCNC(=O)Nc1ccc(OC)cc1)C1CCCc2ccccc21 (stereo not drawn) [Compound 57]
Chemotaxis Assay 10 µM (inhibition %) (CCR3/U937 cells (Table 3a)): 100%

Cc1ccc(NC(=O)NCCCN(CCCC(=O)O)C2CCCc3ccccc32)cc1 (stereo not drawn) [Compound 64, 4-[[3-(4-Methylphenylureido)propyl](1,2,3,4-tetrahydro-1-naphthyl)-amino]butanoic acid]
inhibition at 10 µM (CCR3/U937 cells (Table 3a)): 100%

CC[N+](CCCNC(=O)Nc1ccccc1)(CCc1ccc(Cl)cc1)Cc1ccc(-c2ccccc2)cc1.[I-] (stereo not drawn) [compound 330]
Chemotaxis Assay 10 µM (inhibition %) (CCR3/U937 cells (Table 3c)): 100%

CC[N+](CCF)(CCCNC(=O)Nc1ccc(Br)cc1)CCc1ccc(Cl)cc1Cl.[I-] (stereo not drawn) [compound 383]
Chemotaxis Assay 0.1 µg/ml (inhibition %): 43%

COC(=O)CCCN(CCCNC(=O)Nc1ccccc1)CCc1ccc(Cl)cc1 [Compound 49]
Chemotaxis Assay 10 µM (inhibition %) (CCR3/U937 cells (Table 3a)): 100%

O=C(O)CCCN(CCCNC(=O)Nc1ccc(Br)cc1)C1CCc2ccccc21 (stereo not drawn) [Compound 173, 4-[[3-(4-Bromopbenylureido)propyl](1-indanyl)amino]butanoic acid]
Chemotaxis Assay 10 µM (inhibition %) (CCR3/U937 cells (Table 3a)): 100%

O=C(O)CCCN(CCCNC(=O)Nc1ccccc1Br)C1CCCc2ccccc21 (stereo not drawn) [Compound 190]
Chemotaxis Assay 10 µM (inhibition %) (CCR3/U937 cells (Table 3a)): 90%

CCC[N+](CC)(CCCNC(=O)Nc1ccc(Br)cc1)CCc1ccc(Cl)cc1.[I-] (stereo not drawn) [Compound 295]
Chemotaxis Assay 10 µM (inhibition %) (CCR3/U937 cells (Table 3c)): 100%

CC(c1ccc(Cl)cc1)N(CCCNC(=O)Nc1ccc(Br)cc1)CCCC(=O)O (stereo not drawn) [Compound 272, 4-[[3-(4-Bromophenylureido)propyl][1-(4-chlorophenyl)ethyl]amino]butanoic acid]
inhibition at 10 µM (CCR3/U937 cells (Table 3a)): 89%

O=C(O)CCCN(CCCNC(=O)Nc1ccc(Br)cc1)CCc1ccc(Cl)cc1 [Compound 79]
Chemotaxis Assay 10 µM (inhibition %) (CCR3/U937 cells (Table 3a)): 78%

O=C(O)CCCN(CCCNC(=O)Nc1ccc2ccccc2c1)C1CCCc2ccccc21 (stereo not drawn) [Compound 265]
Chemotaxis Assay 10 µM (inhibition %) (CCR3/U937 cells (Table 3a)): 95%
